# Reference: patent US20120129892A1, “NOVEL PHARMACEUTICALLY ACCEPTABLE SALTS OF 4-(1H-IMIDAZOL-4-[…])PYRIDINE AND THEIR THERAPEUTICAL USES” (BIOPROJET, priority 2009, published 2012)
# Structures can show the parent of a compound that is named as a salt. Where two headings read alike, the source gives them in different places.
# Experiments:
# recombinant hH3R = target: T1, recombinant hH3R (Homo sapiens, UniProt Q9Y5N1); assay: [35S]GTPγS binding activation on recombinant hH3R expressed in HEK 293 cells; format: biochemical
# T1 construct: expressed in transfected cells; host or cells: HEK 293 cells
# T1 sequence (Q9Y5N1 whole entry): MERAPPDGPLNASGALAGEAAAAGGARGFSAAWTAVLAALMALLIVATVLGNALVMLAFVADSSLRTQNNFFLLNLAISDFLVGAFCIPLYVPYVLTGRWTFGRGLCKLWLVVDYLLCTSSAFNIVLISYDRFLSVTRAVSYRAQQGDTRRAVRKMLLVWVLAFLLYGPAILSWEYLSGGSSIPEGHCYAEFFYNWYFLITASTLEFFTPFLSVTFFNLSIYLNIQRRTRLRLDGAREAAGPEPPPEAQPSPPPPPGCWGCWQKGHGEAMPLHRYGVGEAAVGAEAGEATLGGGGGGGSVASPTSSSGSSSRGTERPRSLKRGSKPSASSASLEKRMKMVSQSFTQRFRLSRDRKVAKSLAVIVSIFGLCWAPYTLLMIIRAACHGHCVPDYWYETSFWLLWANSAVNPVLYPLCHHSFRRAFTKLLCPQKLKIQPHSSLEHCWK
# human H3R = human H3R (Homo sapiens, UniProt Q9Y5N1); assay: β arrestin translocation; format: cell-based
# Sequence of human H3R (Q9Y5N1 whole entry): as above
# [1] = AUCs of unchanged drug and tele methylated derivative in mouse brain and blood; format: in vivo; details: 1 mg/kg, p.o.
# [2] = sleep EEG recording in rats (24-hr recordings); format: in vivo; details: for tolerance to sleep-promoting / hypnotic effect: repeated o.d. administration over several days
# Source text: While the sleep-promoting activity of several other H3R agonists has been previously described (Lin et al., Brain Res., 1990, 523, 325-330; Monti et al., Neuropsychopharmacology, 1996, 15, 31-35), much higher dosages—by two to three orders of magnitude—were required to obtain this effect.
# This is in contrast with the long-lasting disorders of circadian rhythms, namely the relative insomnia, which occur at the interruption of a repeated treatment with benzodiazepines or imidazopyridines such as Zolpidem.
# [3] = withdrawal symptoms after interruption of repeated Zolpidem treatment in rats; format: in vivo; details: 18 days 20 mg/kg o.d. oral Zolpidem followed by 0.3 mg/kg, p.o.
# Experimental: (§1) Accordingly, rats treated orally for 18 days by 20 mg/kg o.d.
# [4] = general tolerance in rodents; format: in vivo; details: doses as high as 100 mg/kg
# Experimental: as §1
# [5] = target: recombinant human cytochrome P450 3A4 (Homo sapiens, UniProt P08684); assay: inhibition of recombinant human cytochrome P450 3A4; format: in vitro ADME; details: read-out: IC50 at 3A4 isoform
# Sequence of recombinant human cytochrome P450 3A4 (P08684 whole entry, canonical isoform): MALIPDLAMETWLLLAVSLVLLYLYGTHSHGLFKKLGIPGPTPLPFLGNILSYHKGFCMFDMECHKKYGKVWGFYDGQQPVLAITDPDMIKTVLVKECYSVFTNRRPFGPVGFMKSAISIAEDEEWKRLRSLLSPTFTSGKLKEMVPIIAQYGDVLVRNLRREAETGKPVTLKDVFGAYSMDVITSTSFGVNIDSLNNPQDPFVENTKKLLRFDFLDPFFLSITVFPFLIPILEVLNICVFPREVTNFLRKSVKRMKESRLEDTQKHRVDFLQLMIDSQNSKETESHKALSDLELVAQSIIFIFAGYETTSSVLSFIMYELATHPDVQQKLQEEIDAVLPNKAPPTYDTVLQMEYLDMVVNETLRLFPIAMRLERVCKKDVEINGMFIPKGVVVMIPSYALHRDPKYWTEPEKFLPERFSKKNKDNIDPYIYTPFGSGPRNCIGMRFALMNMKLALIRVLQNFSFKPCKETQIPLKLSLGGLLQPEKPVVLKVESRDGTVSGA
# Source text: (§2) These values are over 3 orders of magnitude higher than the expected plasma or tissue concentrations at therapeutic dosage.
# [6] = target: recombinant human cytochrome P450 2D6 (Homo sapiens, UniProt P10635); assay: inhibition of recombinant human cytochrome P450 2D6; format: in vitro ADME; details: read-out: IC50 at 2D6 isoform
# Sequence of recombinant human cytochrome P450 2D6 (P10635 whole entry, canonical isoform): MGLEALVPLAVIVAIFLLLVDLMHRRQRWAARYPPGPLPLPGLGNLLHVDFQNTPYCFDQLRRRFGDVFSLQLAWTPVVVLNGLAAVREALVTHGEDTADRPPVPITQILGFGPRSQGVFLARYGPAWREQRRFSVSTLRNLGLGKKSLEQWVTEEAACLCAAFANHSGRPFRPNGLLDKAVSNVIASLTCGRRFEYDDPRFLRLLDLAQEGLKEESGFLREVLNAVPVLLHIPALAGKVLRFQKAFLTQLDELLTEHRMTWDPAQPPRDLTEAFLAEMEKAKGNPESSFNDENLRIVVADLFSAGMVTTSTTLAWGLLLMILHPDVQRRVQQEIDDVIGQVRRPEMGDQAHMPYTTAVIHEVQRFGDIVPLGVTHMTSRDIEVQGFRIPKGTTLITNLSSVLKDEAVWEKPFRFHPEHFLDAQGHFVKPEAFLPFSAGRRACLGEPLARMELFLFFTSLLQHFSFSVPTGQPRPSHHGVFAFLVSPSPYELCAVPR
# Source text: as §2
# [7] = target: recombinant human cytochrome P450 2C9 (Homo sapiens, UniProt P11712); assay: inhibition of recombinant human cytochrome P450 2C9; format: in vitro ADME; details: read-out: IC50 at 2C9 isoform
# Sequence of recombinant human cytochrome P450 2C9 (P11712 whole entry, canonical isoform): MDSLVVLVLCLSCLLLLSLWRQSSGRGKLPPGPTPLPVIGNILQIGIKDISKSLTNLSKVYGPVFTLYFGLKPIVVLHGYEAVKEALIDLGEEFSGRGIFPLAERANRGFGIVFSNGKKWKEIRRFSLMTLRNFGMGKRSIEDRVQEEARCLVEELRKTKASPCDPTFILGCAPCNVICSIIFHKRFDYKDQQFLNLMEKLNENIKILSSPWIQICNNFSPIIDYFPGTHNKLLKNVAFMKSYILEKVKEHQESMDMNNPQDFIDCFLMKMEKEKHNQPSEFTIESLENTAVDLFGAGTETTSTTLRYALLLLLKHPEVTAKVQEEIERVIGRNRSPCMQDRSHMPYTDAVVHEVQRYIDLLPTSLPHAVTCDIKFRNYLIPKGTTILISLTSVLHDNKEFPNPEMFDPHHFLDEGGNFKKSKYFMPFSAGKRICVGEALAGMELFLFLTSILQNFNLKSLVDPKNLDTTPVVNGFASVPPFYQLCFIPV
# Source text: as §2
# [8] = test system: human CYP 450 isoforms (3A4, 2C9, 2E1, 2B6) and UGTs; assay: induction of CYP 450 isoforms and UGTs in human hepatocytes; format: in vitro ADME; details: concentrations over 3 orders of magnitude higher than expected therapeutic concentrations
# H3R in brain [9] = target: H3R in brain (Mus musculus, UniProt P58406); details: mice, oral, immethridine base and salts at 0.3 mg/kg, imetit: maximal reduction
# Sequence of H3R in brain (Mus musculus, UniProt P58406) (P58406 whole entry): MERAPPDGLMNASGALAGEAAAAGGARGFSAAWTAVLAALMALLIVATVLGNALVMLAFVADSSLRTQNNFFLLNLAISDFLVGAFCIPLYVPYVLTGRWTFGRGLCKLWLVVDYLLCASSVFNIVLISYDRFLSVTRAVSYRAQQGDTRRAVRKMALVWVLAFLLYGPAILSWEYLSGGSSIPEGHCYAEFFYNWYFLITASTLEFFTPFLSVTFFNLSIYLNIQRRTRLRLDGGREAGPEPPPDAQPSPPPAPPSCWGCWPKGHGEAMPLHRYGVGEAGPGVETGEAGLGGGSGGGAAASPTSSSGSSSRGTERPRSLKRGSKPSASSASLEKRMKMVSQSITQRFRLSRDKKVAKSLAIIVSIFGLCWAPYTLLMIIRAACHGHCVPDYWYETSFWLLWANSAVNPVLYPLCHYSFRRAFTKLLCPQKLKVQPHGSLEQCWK
# H3R = target: T2, H3R (Rattus norvegicus, UniProt Q9QYN8); details: rats, intraperitoneal, doses as high as 10 mg/kg necessary (Celanire et al.); cited from earlier work
# T2 construct: host or cells: living rats (brain)
# T2 sequence (Q9QYN8 whole entry): as the sequence (P58406 whole entry) above, with A15T, T286A, G290A, H387R, V389I counted along it
# [10] = AUCs of unchanged drug and metabolite in rat brain and blood; details: Sprague-Dawley, po, 1 mg/kg
# [11] = stability on heating at 80° C. during one week, HPLC analysis
# hERG potassium channel [12] = target: T3, hERG potassium channel (Homo sapiens, UniProt Q12809); assay: [3H]dofetidide binding assay, HEK-293 cells stably expressing hERG; details: concentrations up to 10 μM
# T3 sequence (Q12809 whole entry): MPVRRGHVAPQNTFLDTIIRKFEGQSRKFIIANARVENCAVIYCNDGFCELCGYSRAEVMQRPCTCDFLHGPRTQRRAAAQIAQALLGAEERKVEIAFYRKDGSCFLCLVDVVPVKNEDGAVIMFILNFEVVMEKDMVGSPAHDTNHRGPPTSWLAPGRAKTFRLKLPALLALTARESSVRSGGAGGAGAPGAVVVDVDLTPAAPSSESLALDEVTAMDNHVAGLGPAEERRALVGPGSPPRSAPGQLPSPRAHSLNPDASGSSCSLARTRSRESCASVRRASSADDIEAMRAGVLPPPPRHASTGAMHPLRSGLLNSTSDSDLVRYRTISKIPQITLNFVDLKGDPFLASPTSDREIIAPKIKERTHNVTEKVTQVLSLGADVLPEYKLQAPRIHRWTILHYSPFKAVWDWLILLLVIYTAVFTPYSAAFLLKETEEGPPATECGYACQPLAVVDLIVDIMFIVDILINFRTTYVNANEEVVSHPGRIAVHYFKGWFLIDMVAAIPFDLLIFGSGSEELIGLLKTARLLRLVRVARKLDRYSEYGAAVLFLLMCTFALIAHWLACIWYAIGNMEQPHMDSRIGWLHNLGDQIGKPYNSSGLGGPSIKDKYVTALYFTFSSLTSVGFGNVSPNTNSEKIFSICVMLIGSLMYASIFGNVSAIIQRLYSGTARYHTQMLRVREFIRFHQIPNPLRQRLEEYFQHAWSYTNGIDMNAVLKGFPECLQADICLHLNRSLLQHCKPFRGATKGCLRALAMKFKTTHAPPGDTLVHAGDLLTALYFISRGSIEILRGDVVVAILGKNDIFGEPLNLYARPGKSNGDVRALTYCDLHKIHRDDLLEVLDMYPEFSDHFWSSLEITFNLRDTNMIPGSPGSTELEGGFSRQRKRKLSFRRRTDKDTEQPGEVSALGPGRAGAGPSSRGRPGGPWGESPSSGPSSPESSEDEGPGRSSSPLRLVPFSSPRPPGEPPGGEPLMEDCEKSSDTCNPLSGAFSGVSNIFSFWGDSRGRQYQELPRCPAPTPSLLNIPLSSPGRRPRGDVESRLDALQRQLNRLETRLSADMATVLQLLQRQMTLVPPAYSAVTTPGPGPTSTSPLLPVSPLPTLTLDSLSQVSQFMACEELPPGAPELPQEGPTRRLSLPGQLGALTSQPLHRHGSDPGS
# hERG potassium channel [13] = target: T3, hERG potassium channel; assay: potassium hERG current, functional patch clamp assay in HEK-293 cells; details: concentrations up to 10 μM
# H3R in brain [14] = assay: reduction of brain tele methylhistamine levels after oral dosing (ED50)
# human HMT = human HMT (Homo sapiens, UniProt P50135); assay: tele-methylation by HMT, cytosol of fresh human hepatocytes, Lineweaver-Burk analysis; details: pH 7.4, 20 μM (S)-adenosyl methionine
# Sequence of human HMT (P50135 whole entry): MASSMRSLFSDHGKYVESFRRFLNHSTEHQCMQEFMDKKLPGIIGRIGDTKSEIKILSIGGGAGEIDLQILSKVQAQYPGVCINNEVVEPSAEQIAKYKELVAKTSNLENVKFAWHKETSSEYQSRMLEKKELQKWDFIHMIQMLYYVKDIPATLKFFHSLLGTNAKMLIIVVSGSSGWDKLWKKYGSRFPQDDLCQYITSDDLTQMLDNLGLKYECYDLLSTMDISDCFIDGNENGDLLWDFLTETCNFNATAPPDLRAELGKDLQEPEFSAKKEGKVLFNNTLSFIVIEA
# [15] = hygroscopy: water uptake in a water-saturated atmosphere at room temperature; format: physicochemical; details: a few days in water-saturated atmosphere at room temperature, listed as immethridine dioxalate
smiles,measurement,setting,value
"c1cc(Cc2cnc[nH]2)ccn1 [BP1.5375, 4-(1H-imidazol-4-yl-methyl)-pyridine]",EC50,recombinant hH3R,~0.001 µM
same,intrinsic activity compared with histamine,"recombinant hH3R; [35S]GTPγS binding, hH3R",0.75
same,EC50,human H3R,~0.017 µM
same,intrinsic activity compared to histamine,human H3R; β arrestin translocation,0.5
same,ratio of brain/blood AUCs,[1],close to unit
same,rebound / sleep pattern upon interruption of repeated treatment,"[2]; after interruption of 6-day treatment with 0.3 mg/kg, p.o.",does not give rise to a rebound phenomenon
same,tolerance to sleep-promoting / hypnotic effect,[2],does not diminish
same,duration of deep SWS (slow wave sleep) period,"[2]; same very low dosages, administered 30 min before start of light-on period",enhanced significantly
same,occurrence of withdrawal symptoms after Zolpidem interruption,[3],prevents the occurrence of withdrawal symptoms
same,apparent toxicity sign,[4],does not induce any apparent toxicity sign
same,IC50,[5],29.3 µM
same,IC50,[6],≥ 100 µM
same,IC50,[7],3.1 µM
same,"induction of CYP 450 isoforms (3A4, 2C9, 2E1, 2B6) and UGTs",[8],not induced
same,"t-methylhistamine brain level variation vs. control, mean (%)",H3R in brain [9]; 0.3 mg/kg,−42.1%
same,decrease of histamine in brain,H3R,modestly decrease histamine in brain
same,Kp,[10],2.6
same,stability when heated,[11]; listed as immethridine,darkens
same,inhibition of [3H]dofetidide binding,hERG potassium channel [12],not to inhibit
same,inhibition of potassium hERG current,hERG potassium channel [13],not to inhibit
same,"ED50, reduction of levels of tele methylhistamine in brain",H3R in brain [14]; given orally to rats or mice,~30 micrograms/kg
same,tele methylhistamine response upon repeated administration,H3R in brain [14]; repeated administration over 7 days,maintained
c1cc(Cc2c[nH]cn2)ccn1 [BP1.5375 (alpha keto-glutarate salt)],"t-methylhistamine brain level variation vs. control, mean (%)","H3R in brain [9]; listed as Immethridine alpha-ketoglutarate, 0.3 mg/kg",−46.1%
c1cc(Cc2cnc[nH]2)ccn1 [Immethridine dihydrochloride],"t-methylhistamine brain level variation vs. control, mean (%)",H3R in brain [9],−37.0%
CS(=O)(=O)O.CS(=O)(=O)O.c1cc(Cc2c[nH]cn2)ccn1 [Immethridine methane sulfonate],"t-methylhistamine brain level variation vs. control, mean (%)",H3R in brain [9],−40.0%
"Cc1ccc(-c2nc3ccc(C)cn3c2CC(=O)N(C)C)cc1 [Zolpidem, reference compound]",withdrawal symptoms upon interruption of repeated treatment,"[2]; after interruption of 15-day treatment with 20 mg/kg, p.o.","increases in sleep onset latency, decrease in deep sleep"
same,tolerance to sleep-promoting / hypnotic effect,[2],rapid development of tolerance
c1cc(Cc2c[nH]cn2)ccn1 [BP1.5375 (dibromhydrate salt)],Vm,human HMT,0.004 µM/min
c1cc(Cc2c[nH]cn2)ccn1 [BP1.5375 (ditoluenesulfonate salt)],"t-methylhistamine brain level variation vs. control, mean (%)","H3R in brain [9]; listed as Immethridine di p-toluene sulfonate, 0.3 mg/kg",−41.6%
same,Vm,human HMT,0.004 µM/min
"c1cc(Cc2cnc[nH]2)ccn1 [BP1.5375 (dioxalate salt), 4-(1H-imidazol-4-ylmethyl)-pyridine dioxalate]","water uptake, % of weight",[15],13-15%
same,stability when heated,"[11]; listed as immethridine dioxalate, dioxalate",no apparent degradation
